What was measured:
[1] = system: ERK phosphorylation; test: ERK phosphorylation in HepG2 cells (Western blot); format: cell-based, human; conditions: serum-starved HepG2; trypsin 50 nM, Triptolide 1 µM, Triptonide 1 µM; 0-40 minutes
[2] = system: PKA; test: Measurement of PKA activity in HepG2 cells; format: cell-based, human; conditions: one-hour treatment in regular medium (Trypsin 50 nM, Triptonide 1 µM); hour 9 and 10 after mimosine
[3] = system: cAMP; test: Measurement of cAMP levels in HepG2 cells; format: cell-based, human; conditions: treatment 2 hours after mimosine; Trypsin 50 nM, Triptonide 1 µM; serum-free
[4] = system: HepG2-GFP orthotopic xenograft tumor; conditions: Triptonide 25 mg/kg by gavage every other day; Sorafenib intraperitoneal; n=10 per cohort
[5] = system: wild-type keratinocytes; test: Growth of wild-type primary keratinocytes, continuous exposure; format: cell-based, mouse; conditions: as low as 1.25 nM (lowest examined), continuous exposure
Experimental: (§1) For the neonatal mouse keratinocyte culture, the dorsal skins of neonatal wild type or Par2 knockout mice were harvested from wild type or Par2 knockout mice, respectively. The skins were incubated overnight at 4° C. in a 0.25% solution of trypsin (Life Technologies, USA) in phosphate-buffered saline (PBS) without calcium and magnesium. The epidermis was then separated from the adjoining dermis, and the dispersed epidermal cells were collected in suspension Eagle’s minimal essential medium (SMEM) (Life Technologies, USA) supplemented with glutamine and 8% calcium free fetal calf serum (FCS) (Life Technologies, USA). The cells were plated onto individual wells of 48 well plates (Corning, USA), which were pre-coated with collagen (Life Technologies, USA), at a density of 70,000 cells/well. The cell cultures were kept for 12 hours at 34° C. in a humidified incubator containing 8% CO2. Low calcium (0.05 mM) S-MEM, containing 8% FCS was then added to initiate the culture. The culture medium was changed every 2 days.
(§2) For primary hepatocytes, the seeded cells were monitored for up to 48 hours either without any treatment (as a control) or with various types of treatments. For primary keratinocytes, cells in 48-well plates were monitored either without any treatment or with various types of treatment for up to 96 hours. For HepG2, cells 96-well plates were monitored either without any treatment or with various types of treatments for up to 48 hours. The IncuCyte Zoom was set to take a set of images at fixed locations (4 per well for 96-well plates and 16 per well for 48-well plates and 12-well plates) every three hours.
To address this question, we took a genetic approach.

[6] = system: Par2 knockout keratinocytes; test: Growth of Par2 knockout primary keratinocytes, continuous exposure; format: cell-based, mouse; conditions: as low as 1.25 nM (lowest examined)
Experimental: as §1, with “Low calcium (0.05 mM) S-MEM, containing 8% FCS was then added to initiate the culture. The culture medium was changed every 2 days.” left out
as §2, with “The IncuCyte Zoom was set to take a set of images at fixed locations (4 per well for 96-well plates and 16 per well for 48-well plates and 12-well plates) every three hours.” left out

[7] = system: Par2 knockout keratinocytes; test: Growth of Par2 knockout primary keratinocytes, one hour treatment; format: cell-based, mouse; conditions: as high as 800 nM, one hour
[8] = system: wild-type keratinocytes; test: Growth of wild-type primary keratinocytes, short-term treatment; format: cell-based, mouse; conditions: as high as 800 nM, one hour
[9] = system: mimosine-treated HepG2 cells; test: One-hour treatment of mimosine-treated HepG2 cells, live cell imaging; format: cell-based, human; conditions: one-hour treatment
[10] = system: mimosine treated HepG2 cells; test: Cell cycle analysis by flow cytometry (PI staining); format: cell-based, human; conditions: 2 µM, by 24 hours
[11] = system: HepG2 cells; test: Blocking the AC-cAMP-PKA pathway, growth of HepG2 cells; format: cell-based, human; conditions: Triptonide 1 µM, Vidarabine 10 µM, PKI 2.5 µM, alone or combined

In the case of Trypsin, the “levels of phosphorylated ERK” value [1] is reported as “two-stage increase”, the “level of PKA activity around G2/M transition” value [2] is reported as “reduced significantly” and the “levels of cAMP” value [3] is reported as “modest and transient elevations”.

CNC(=O)c1cc(Oc2ccc(NC(=O)Nc3ccc(Cl)c(C(F)(F)F)c3)cc2)ccn1 [Sorafenib, reference compound] was tested, and the “tumor specific (GFP) signals” value [4] was “lower intensities of the tumor specific signals at all time points”.

In the case of CC(C)[C@]12O[C@H]1[C@@H]1O[C@]13[C@]1(O[C@H]1C[C@H]1C4=C(CC[C@@]13C)C(=O)OC4)[C@@H]2O [Triptolide, reference compound], the “lethality for wild-type keratinocytes” value [5] is reported as “complete lethality”, the “levels of phosphorylated ERK” value [1] is reported as “no significant effects” and the “lethality for Par2 knockout keratinocytes” value [6] is reported as “complete lethality”. The “growth inhibitory effect on Par2 knockout keratinocytes” value [7] was “did not have any significant growth inhibitory effect”, the “growth inhibitory effect on wild-type keratinocytes” value [8] was “did not have any significant growth inhibitory effect” and the “growth and mitotic catastrophe” value ([9]; 1 µM, regardless of time) was “growth inhibitory, but did not cause mitotic catastrophe”. For the same molecule, the “growth and chromatin condensation” value ([9]; 2 µM, at 0 and 2 hours after mimosine treatment) was “not only growth inhibitory, but also caused chromatin condensation” and the “sub-G1 (<2N, apoptotic) population” value [10] was “significant peaks of the sub-G1”.

For Nc1ncnc2c1ncn2[C@@H]1O[C@H](CO)[C@@H](O)[C@@H]1O [Vidarabine, reference compound], the “effect on growth of HepG2 cells” value [11] was “no significant effects”.
